Holding throughout (experiment): growth of human tumour cells (NCI), 48 h
Test [1] deals with M14 melanoma.
In test [2] the test system is UO-31 renal.
Test [3] concerns HS 578T breast.
The test system of test [4] is MDA-MB-435.
In test [5] the test system is UACC-257 melanoma.
The subject of test [6] is T-47D breast.
Test [7] has as its system SNB-19 CNS.
In test [8] the test system is DU-145 prostate.
For test [9], the system named is MOLT-4 leukemia.
The test system of test [10] is RPMI-8226 leukemia.

The values that follow come from PubChem BioAssay (NCI).

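1) Cells in 96-well plates. 2) Compound, 48 h, 5 concentrations. 3) Linear interpolation between surrounding doses. 4) Unreached endpoint = highest concentration. The concentration for 50% growth inhibition is given as GI50. The concentration for full growth arrest is given as TGI.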 Where only a bound is given, the exact number is not on record here.

As for `O=Nc1c(-c2cccc([N+](=O)[O-])c2)nc2cnccn12`, the TGI is 42 µM in test [1]; 25.2 µM in test [2]; over 100 µM in test [3]; 43.1 µM in test [4]; 41 µM in [5]; 49.6 µM in [6]. The figures for the TGI in test [7], in test [8] and in [9] were over 100 µM, 40.2 µM and 27.6 µM, respectively.
For the molecule `N#Cc1c2ccccc2c2n1-c1ccccc1OC(c1ccccc1)C2=O` (stereo unspecified), the GI50 in [1] was 3.89 µM; in [2] it was 3.19 µM; in [3] it was 3.53 µM; in test [4], 2.88 µM; in test [5] it was 3.82 µM; in [6], 3.28 µM. Moreover, the GI50 is 4.25 µM in [7], 6.1 µM in [8], 4.47 µM in test [9] and 2.75 µM in test [10]. Also, the TGI in test [1] came out at 17.4 µM; in [2], 12 µM; in test [3], 37 µM; in test [4], 9.19 µM; in test [5], 17.6 µM; in [6], 15.6 µM. Also, the TGI in test [7] was over 100 µM; in test [8], 26.3 µM; in [9], 19.6 µM; in test [10], 9.07 µM.
`COC(=O)Nc1nc2ccc(Oc3ccc(NC(=O)Nc4cccc(Br)c4)cc3)cc2[nH]1`: the GI50 in [1] is 2.12 µM; in [2], over 16.6 µM; in test [3], 3.16 µM; in test [4], 0.0839 µM; in test [5] it was 1.95 µM; in test [6], 2.17 µM. Also, the GI50 in test [7] was 8.31 µM; in test [8] it was 3.15 µM; in [9], 4.03 µM; in [10], 8.24 µM. Further, the TGI in test [1] was over 17.8 µM; in test [2] it was over 25 µM; in test [3], over 19.8 µM; in [4], 0.46 µM; in test [5], over 16 µM; in test [6], over 16.7 µM. Also, the TGI was over 25 µM in test [7], over 14.6 µM in [8], over 15.4 µM in test [9] and over 25 µM in test [10].
On to `OCc1cccc(-c2ccc3ncc(-c4nc(NC5CC5)ncc4F)n3c2)c1`, for which the GI50 in test [1] is 0.328 µM; in test [2], 0.3 µM; in test [3], 0.212 µM; in [4], 0.284 µM; in test [5], 0.372 µM; in [6], 0.274 µM. Also, the GI50 in test [7] was 0.323 µM; in [8], 0.287 µM; in test [9] it was 0.266 µM; in test [10], 0.22 µM. The TGI in [1] worked out at 1.15 µM; in [2], 1 µM; in test [3], 0.701 µM; in test [4] it was 0.919 µM; in [5] it was 1.79 µM; in test [6] it was 3.93 µM. For the same molecule, the TGI worked out at 4.18 µM in test [7], 1.83 µM in [8] and 0.788 µM in test [10].
Turning to `CCc1ccc(-c2ccc(=O)n(-c3ccc(S(N)(=O)=O)cc3)n2)cc1`, the GI50 in test [1] was 0.764 µM; in test [2], over 100 µM; in [3], 1.55 µM; in [4] it was 0.252 µM; in test [5], over 30.9 µM; in [6], 3.85 µM. Moreover, the GI50 in test [7] is 5.21 µM; in test [8], 21.3 µM; in [9], 0.884 µM; in [10] it was 0.759 µM. Also, the TGI in test [1] is over 22.2 µM; in test [2], over 100 µM; in test [3] it was 23.6 µM; in test [4] it was 1.71 µM; in test [5], over 100 µM; in test [6] it was over 100 µM. Also, the TGI in test [7] is 40.1 µM; in test [8], over 100 µM; in test [9], over 90 µM; in test [10], 7.33 µM.
`Cc1[nH]c(C(=O)Nc2ccc(C(=O)N3CCNCC3)cc2OC(C)C)c(Cl)c1Cl`: the GI50 in test [1] is 1.94 µM; in test [2] it was 1.44 µM; in test [3] it was 1.74 µM; in test [4], 1.76 µM; in [5], 1.79 µM; in test [6] it was 1.91 µM. In addition, the GI50 in [7] was 1.89 µM; in test [8] it was 2.06 µM; in [9] it was 2.32 µM; in [10] it was 2.31 µM. The TGI turned out to be 3.57 µM in test [1]; 2.85 µM in test [2]; 3.91 µM in test [3]; 3.23 µM in [4]; 3.52 µM in [5]; 4.62 µM in [6]. The TGI in test [7] amounted to 3.95 µM; in test [8], 4.06 µM; in test [9], 5.1 µM; in test [10], 5.51 µM.
For the molecule `COc1ccc(Nc2ncccc2/C=C/C(=O)c2cc(OC)c(OC)c(OC)c2)cc1`, the GI50 in test [1] is 1.65 µM; in test [2] it was 1.12 µM; in test [3] it was 2.68 µM; in test [4], 1.46 µM; in [5], 1.53 µM; in [6], 1.67 µM. Also, the GI50 is 2.14 µM in test [7], 1.59 µM in [8] and 2.09 µM in test [9]. Also, the TGI in test [1] is 3.16 µM; in test [2], 2.33 µM; in test [3], 9.6 µM; in test [4], 3.36 µM; in [5], 2.92 µM; in [6], 4.03 µM. The TGI in test [7] turned out to be 6.33 µM; in test [8], 2.93 µM; in test [9], 5.45 µM.
`COc1cc2c(cc1OCCCOC1=C=C=C(c3ccc4c(c3)c3cc(-c5ccc(OCCCOc6cc7c(cc6OC)C(=O)N6CCC[C@H]6C=N7)cc5)ccc3n4S(=O)(=O)c3ccc(C)cc3)C=C1)N=C[C@@H]1CCCN1C2=O`: the GI50 in test [1] was 1.58 µM; in test [2], 3.21 µM; in test [3], 1.42 µM; in test [4] it was 2.07 µM; in test [5], 6.71 µM; in [6], 1.3 µM. Besides, the GI50 is 3.5 µM in test [7], 1.13 µM in [8], 0.739 µM in [9] and 0.665 µM in test [10]. The TGI in [1] was 6.93 µM; in test [2], 11.4 µM; in test [3], over 10.8 µM; in test [4], 5.25 µM; in [5], 15.6 µM; in [6] it was 19.1 µM. Also, the TGI in test [7] was 38.7 µM; in test [8] it was 2.73 µM; in [9] it was over 50 µM; in [10] it was over 14.5 µM.
